MIC data for one compound are collected here from CN106344577A, “Fistulains A在抗幽门螺杆菌药物中的应用” (Quanjiao Xianqi Pharmaceutical Technology Co Ltd, priority 2016, dated 2017).

In brackets after ≈: the same amount, converted by molar mass.

For the experiment, the system named is Helicobacter pylori (幽门螺杆菌). Nature of the experiment: Agar dilution method, MIC against H. pylori. It is filed as cell-based. The conditions noted are these: same value for each of 6 strains: 5 random clinical strains (Hp001, Hp003, Hp004, Hp018, Hp036) and standard strain ATCC43504, complete growth inhibition, 37℃, 72 h, microaerobic, read-out: minimum inhibitory concentration (MIC).

For the compound `CC1(C)S[C@@H]2[C@H](NC(=O)[C@H](N)c3ccccc3)C(=O)N2[C@H]1C(=O)O` [氨苄西林], the MIC came to 3.3 µg/mL (≈ 9.44 µM).
